Measurements: patent US8449923B2, “Methods for inhibiting sensory nerves by topically administering strontium-containing compositions to keratinized skin” (Cosmederm Bioscience, Inc., priority 1994, dated 2013)
Where two headings read alike, the source gives them in different places.

Columns and labels:
[1] = test system: skin irritation induced by lactic acid (face); test: Lactic acid irritation trial, pretreatment test (anti-irritant applied 15 minutes before irritant); format: in vivo, human; details: pretreatment tests; for Percent Inhibition (average inhibition of cumulative irritation): cation salt 250 mM, lactic acid irritant; for Percent Inhibition: representative subject panels, 250 mM, vehicle VIS DIFFERENCE
Description: (§1) The majority of the trials were conducted using lactic acid as the skin irritant, and proceeded generally as follows.
(§2) Tests were conducted in multiple panels of from 7 to 12 subjects each. Subjects were instructed not to wear any makeup or facial lotions to the clinic the day of testing. The subjects were instructed to wash their face with Ivory bar soap in the clinic prior to application of test solutions.
(§3) Lactic acid skin-irritant compositions were formulated in an appropriate vehicle prior to application to the skin of the subjects.
(§4) Test anti-irritant formulations containing measured amounts of strontium salts (concentration 250 mM) were applied either (a) 15 minutes prior to application to the skin of the skin-irritant (“pretreatment test”) or (B) simultaneously with the application of the skin-irritant (“time zero test”). […] Controls were performed by applying corresponding formulation(s) (pretreatment and/or skin-irritant composition) with an equimolar amount of sodium chloride to a contralateral portion of the subject's skin. Typically, the test materials were applied to the face of the subject.
(§5) All test solutions (including controls) were applied in a double blind, randomized fashion using the prepared solutions as previously placed in coded vial designated for use on either the right or left side of the face (or other test area). Solutions were typically applied using a cotton swab (six strokes) or sponge applicator to the face and cheek area extending from the midline of the nose over to the center of the cheek and from the cheek bone down to the jaw line. Application was made first to the right side and then to the left.
(§6) Sensory assessment scores were recorded for each treated side of the subject's skin every minute for 15 minutes or until three consecutive scores of “zero” irritation were obtained. The following scaled scores were used for sensory assessment:
(§7) Symptom scores were cumulated, separately for the cation-treated and control-treated areas, for each individual and also for the panel as a whole. Individuals not reporting a cumulative score of at least “7” on at least one treatment area were excluded (in a blinded fashion) from further analysis in order to ascertain anti-irritant efficacy with respect to the more severely-susceptible test subjects. From a practical standpoint, scores of “0” and “1” on the above scale would be considered highly desirable for a commercial product because such a response would likely not result in a consumer ceasing to use a product. Some consumers, in fact, might view the “barely perceptible” sensations represented by a score of 1 to be an indication that a facial treatment skin care product (especially an exfoliant) was working as advertised. By contrast, irritation scores of “2”, “3” and “4” would likely often result in a consumer never purchasing the product again.

[2] = test system: skin irritation induced by lactic acid (face); test: Lactic acid irritation trial, time zero test (anti-irritant applied simultaneously with irritant); format: in vivo, human; details: for Percent Inhibition (average inhibition of cumulative irritation) / Percent Inhibition: time zero tests; for Percent Inhibition (average inhibition of cumulative irritation): cation salt 250 mM, lactic acid irritant; for Percent Inhibition: representative subject panels, vehicle 10% EtOH
Description: as §1, §2, §3, §4, §5, §6, §7

[3] = test system: irritation induced by capsaicin; details: 250 mM; capsaicin challenge; pretreatment
Description: The test compounds of the invention were formulated in Elizabeth Arden “Visible Difference Refining Toner”, with the Toner mixed with equimolar sodium chloride serving as the control. The test solutions (and control) were provided in coded vials for application to either the right or left arms. A template (1.5 in.×4.0 in.) was placed on each forearm to mark the challenge area. The pre-treatment solutions containing the anti-irritant cation of the invention were applied to extend 1 inch beyond the marked challenge area in all directions and were allowed to dry for 5 minutes. 0.5 ml of 0.15% capsaicin cream or a swab moistened with capsaicin solution was thereafter applied to each arm by the clinical technician, who rubbed in the cream using gloved fingers. Application and scoring of test and control formulations was performed sequentially for each arm. Scoring was recorded every minute starting at 5 minutes post-application for 10 minutes and then every 5 minutes for 15 minutes (30 minutes total) for the cream, and every minute starting immediately for 15 minutes for the solution. Assessment was made using the irritation scale described above for the lactic acid test, and a simultaneous visual assessment of erythema was made by the monitoring technician.

[4] = test system: skin irritation induced by lactic acid
Description: Additional studies of anti-irritant activity using varying concentrations of strontium cations were conducted in order to assess the dose-response behavior of the present formulations. The lactic acid irritation protocol described above was used, in which the anti-irritant cation component was strontium nitrate (31-500 mM).

Compound | Percent Inhibition (average inhibition of cumulative irritation) [1] | Percent Inhibition [1] | Percent Inhibition (average inhibition of cumulative irritation) [2] | Percent Inhibition ([2]; 250 mM) | overall efficacy in one representative panel (FIGS. 5-8) [3] | overall efficacy in one panel (FIGS. 1-4) ([2]; 250 mM, time zero test, one panel) | Percent Inhibition (cumulative irritation) ([4]; concentration 31 mM) | Percent Inhibition (cumulative irritation) ([4]; concentration 62 mM) | Percent Inhibition (cumulative irritation) ([4]; concentration 125 mM) | Percent Inhibition (cumulative irritation) ([4]; concentration 250 mM) | Percent Inhibition (cumulative irritation) ([4]; concentration 500 mM)
CC(=O)[O-].CC(=O)[O-].[Sr+2] [Strontium acetate] | 46% | 46% |  |  |  |  |  |  |  |  | 
[Cl-].[Cl-].[Sr+2] [Strontium chloride] | 25% | 20% | 60% | 58% |  |  |  |  |  |  | 
O=[N+]([O-])[O-].O=[N+]([O-])[O-].[Sr+2] [Strontium nitrate] | 50% | 56% | 65% | 64% | the overall efficacy of the subject formulation is evident | the overall efficacy of the subject formulation is clear | 77% | 32% | 42% | 72% | 82%
